According to patent US20230272464A1, “MODIFIED NUCLEOTIDES AND METHODS FOR DNA AND RNA POLYMERIZATION AND SEQUENCING” (SeNA Research, Incorporated, priority 2019, published 2023):

Assays:
Type in all cases: biochemical
DNA polymerase = DNA polymerase (Escherichia coli, UniProt P00582); assay: Misincorporation of 2-Se-TTP: extension with each dNTP except dCTP; conditions: dCTP not present; up to 30 minutes
Experimental: Experiments to examine the misincorporation of 2-Se-TTP were conducted as follows. Broadly, enzymatic extension reactions were performed using each naturally occurring dNTP except dCTP, knowing that misincorporations of TTP in place of dCTP are commonly the cause of decreased fidelity in DNA replications.

[1] = biological target: Klenow fragment of DNA polymerase I (Escherichia coli, UniProt P00582); assay: Polymerization using TTP or 2-Se-TTP (denatured PAGE)
Chain of Klenow fragment of DNA polymerase I (P00582 324-928): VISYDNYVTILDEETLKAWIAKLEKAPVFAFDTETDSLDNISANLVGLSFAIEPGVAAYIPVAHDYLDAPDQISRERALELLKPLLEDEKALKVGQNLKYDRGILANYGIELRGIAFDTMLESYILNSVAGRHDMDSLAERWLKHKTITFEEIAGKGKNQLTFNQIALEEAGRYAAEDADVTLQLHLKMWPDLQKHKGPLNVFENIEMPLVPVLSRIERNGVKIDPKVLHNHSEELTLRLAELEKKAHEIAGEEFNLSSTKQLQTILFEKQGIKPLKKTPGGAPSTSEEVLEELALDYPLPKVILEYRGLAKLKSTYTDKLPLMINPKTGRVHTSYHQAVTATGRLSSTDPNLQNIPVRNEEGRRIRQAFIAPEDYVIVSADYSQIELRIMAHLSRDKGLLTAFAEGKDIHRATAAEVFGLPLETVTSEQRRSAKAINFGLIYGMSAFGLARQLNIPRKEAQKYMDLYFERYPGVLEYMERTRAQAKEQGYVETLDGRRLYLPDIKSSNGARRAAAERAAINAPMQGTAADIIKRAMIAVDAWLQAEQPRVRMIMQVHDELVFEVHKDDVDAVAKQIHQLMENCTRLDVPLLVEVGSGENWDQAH
Excerpt: The 30-nt DNA products made from the polymerization using TTP and 2-Se-TTP refer to full-length product in FIGS. 2B and 2C, respectively. […] Results of thermal dynamic calculation (FIG. 18) are consistent with the denatured PAGE. The initial reaction rate ratio (TTP vs 2-Se-TTP) was around 1.24.

[2] = PCR of two target fragments with added 2-Se-TTP (agarose gel); conditions: target fragments 268bp, 405bp; 2-Se-TTP additionally added
Excerpt: No bands were found in two blank groups. Thus, incorporation of 2-Se-TTP can effectively reduce the non-specific bands in PCR.

Taq DNA polymerase = Taq DNA polymerase (Thermus aquaticus, UniProt P19821); assay: PCR with dNTPαS I: suppression of nonspecific product
Chain of Taq DNA polymerase (P19821 whole entry): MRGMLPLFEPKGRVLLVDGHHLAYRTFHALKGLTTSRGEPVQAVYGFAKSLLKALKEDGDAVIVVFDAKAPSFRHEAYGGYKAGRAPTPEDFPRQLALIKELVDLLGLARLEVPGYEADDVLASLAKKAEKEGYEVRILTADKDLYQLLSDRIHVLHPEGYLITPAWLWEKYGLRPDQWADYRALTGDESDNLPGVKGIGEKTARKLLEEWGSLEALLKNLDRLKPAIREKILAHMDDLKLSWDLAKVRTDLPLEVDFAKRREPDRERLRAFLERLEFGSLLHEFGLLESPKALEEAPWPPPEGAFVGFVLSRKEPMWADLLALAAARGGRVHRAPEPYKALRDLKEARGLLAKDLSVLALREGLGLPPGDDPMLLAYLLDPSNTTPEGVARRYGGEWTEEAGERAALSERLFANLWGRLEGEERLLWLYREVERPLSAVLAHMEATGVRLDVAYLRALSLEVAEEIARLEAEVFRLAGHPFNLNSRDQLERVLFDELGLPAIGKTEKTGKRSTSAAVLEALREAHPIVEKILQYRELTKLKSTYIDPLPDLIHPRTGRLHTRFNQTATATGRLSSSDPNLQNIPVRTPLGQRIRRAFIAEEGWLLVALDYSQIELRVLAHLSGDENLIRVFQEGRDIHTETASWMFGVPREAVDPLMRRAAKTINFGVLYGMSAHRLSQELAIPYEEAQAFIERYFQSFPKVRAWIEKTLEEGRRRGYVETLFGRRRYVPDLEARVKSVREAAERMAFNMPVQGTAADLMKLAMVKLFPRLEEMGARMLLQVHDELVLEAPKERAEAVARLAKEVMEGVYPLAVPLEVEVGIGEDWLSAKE
Excerpt: Compared to Bst DNA polymerase, Taq DNA polymerase is used much more widely, such as in polymerase chain reaction (PCR).
To test universality of suppression effect of dNTPαS I on nonspecific product, we checked 5 new pairs of primers (primer pair a, b, c, d, e) and 3 types of templates (plasmid, total human cDNA and human genome) with native dNTPs or S-modified dNTPs (FIG. 13). […] Further, S-dNTP can inhibit nonspecific amplification and increase specific product when amplifying simple plasmid template (FIG. 13B). Furthermore, when amplifying complex template (cDNA or genome), reactions using S-dNTP could exact specific product which can not be synthesized using all native dNTPs (FIG. 13B).

[3] = plasmid and total cDNA templates

Chain of DNA polymerase (P00582 324-928): as the sequence (P00582 324-928) above

Row | Compound | misincorporation in place of dCTP (full-length product) (DNA polymerase) | suppression of nonspecific product in PCR (Taq DNA polymerase; [3]) | further results
1 | Cc1cn([C@H]2C[C@H](O)[C@@H](COP(=O)(O)OP(=O)(O)OP(=O)(O)O)O2)c(=[Se])[nH]c1=O [Compound 2-Se-TTP, 2-Se-dTTP] | little to no full-length product |  | initial reaction rate ratio (TTP vs 2-Se-TTP) ([1]; Klenow fragment): around 1.24; recognition by the Klenow fragment ([1]; compared with TTP): relatively well recognized; bands in PCR (nonspecific amplification) [2]: clean and specific bands
2 | Nc1ccn([C@H]2C[C@H](O)[C@@H](COP(O)(=S)OP(=O)(O)OP(=O)(O)O)O2)c(=O)n1 (some centres unmarked) [S-dCTP] |  |  | suppression of nonspecific product in PCR (Taq DNA polymerase; 5 primer pairs, plasmid, total human cDNA and human genome templates): nearly completely suppressed
3 | Cc1cn([C@H]2C[C@H](O)[C@@H](COP(=O)(O)OP(=O)(O)OP(=O)(O)O)O2)c(=O)[nH]c1=O [TTP, reference compound] | incorporated into the DNA primer sequence in a significant amount |  | 
4 | Nc1ccn([C@H]2C[C@H](O)[C@@H](COP(O)(=S)OP(=O)(O)OP(=O)(O)O)O2)c(=O)n1 (some centres unmarked) [dCTPαS I] |  | suppressed nonspecific product nearly completely | 
5 | Nc1nc2c(ncn2C2CC(O)C(COP(O)(=[Se])OP(=O)(O)OP(=O)(O)O)O2)c(=O)[nH]1 (centres unmarked) [dGTPαSe I] |  | suppressed nonspecific product nearly completely | 
